Legend:
Vitis vinifera [1] = test: Inhibition of photosynthesis in Vitis vinifera cv. Pinot noir assessed as PPFD-saturated net CO2 assimilation rate at 1.2 mM measured 7 days post compound application (reference value: 8.9 +/- 1.5 umol/m2/s); type: organism-based; details: in vivo, 168 h, 1200 µM
Vitis vinifera [2] = test: Inhibition of photosynthesis in Vitis vinifera cv. Pinot noir assessed as light compensation point at 30 mM measured 7 days post compound application (reference value: 22.6 +/- 3.1 umol/mol); type: organism-based; details: in vivo, 168 h, 30000 µM
Vitis vinifera [3] = test: Inhibition of photosynthesis in Vitis vinifera cv. Pinot noir assessed as light compensation point at 6 mM measured 7 days post compound application (reference value: 22.6 +/- 3.1 umol/mol); type: organism-based; details: in vivo, 168 h, 6000 µM
Vitis vinifera [4] = test: Inhibition of photosynthesis in Vitis vinifera cv. Pinot noir assessed as light compensation point at 1.2 mM measured 7 days post compound application (reference value: 22.6 +/- 3.1 umol/mol); type: organism-based; details: in vivo, 168 h, 1200 µM
Vitis vinifera [5] = test: Inhibition of photosynthesis in Vitis vinifera cv. Pinot noir assessed as dark respiration at 30 mM measured 7 days post compound application (reference value: 1.6 +/- 0.0 umol/m2/s); type: organism-based; details: in vivo, 168 h, 30000 µM
Vitis vinifera [6] = test: Inhibition of photosynthesis in Vitis vinifera cv. Pinot noir assessed as dark respiration at 6 mM measured 7 days post compound application (reference value: 1.6 +/- 0.0 umol/m2/s); type: organism-based; details: in vivo, 168 h, 6000 µM
Vitis vinifera [7] = test: Inhibition of photosynthesis in Vitis vinifera cv. Pinot noir assessed as dark respiration at 1.2 mM measured 7 days post compound application (reference value: 1.6 +/- 0.0 umol/m2/s); type: organism-based; details: in vivo, 168 h, 1200 µM
Vitis vinifera [8] = test: Inhibition of photosynthesis in Vitis vinifera cv. Pinot noir assessed as apparent quantum yield of CO2 fixation at 30 mM measured 7 days post compound application (reference value: 0.07 +/- 0.01 no unit) umol/m2/s); type: organism-based; details: in vivo, 168 h, 30000 µM
Vitis vinifera [9] = test: Inhibition of photosynthesis in Vitis vinifera cv. Pinot noir assessed as apparent quantum yield of CO2 fixation at 6 mM measured 7 days post compound application (reference value: 0.07 +/- 0.01 no unit) umol/m2/s); type: organism-based; details: in vivo, 168 h, 6000 µM
Vitis vinifera [10] = test: Inhibition of photosynthesis in Vitis vinifera cv. Pinot noir assessed as mitochondrial respiration in the light at 30 mM measured 7 days post compound application (reference value: 3.2 +/- 0.5 umol/m2/s); type: organism-based; details: in vivo, 168 h, 30000 µM
Vitis vinifera [11] = test: Inhibition of photosynthesis in Vitis vinifera cv. Pinot noir assessed as mitochondrial respiration in the light at 6 mM measured 7 days post compound application (reference value: 3.2 +/- 0.5 umol/m2/s); type: organism-based; details: in vivo, 168 h, 6000 µM
Vitis vinifera [12] = test: Inhibition of photosynthesis in Vitis vinifera cv. Pinot noir assessed as CO2 compensation point at 30 mM measured 7 days post compound application (reference value: 74.8 +/- 12.7 umol/mol); type: organism-based; details: in vivo, 168 h, 30000 µM
Vitis vinifera [13] = test: Inhibition of photosynthesis in Vitis vinifera cv. Pinot noir assessed as CO2 compensation point at 6 mM measured 7 days post compound application (reference value: 74.8 +/- 12.7 umol/mol); type: organism-based; details: in vivo, 168 h, 6000 µM
Vitis vinifera [14] = test: Inhibition of photosynthesis in Vitis vinifera cv. Pinot noir assessed as in vivo maximum rate of rubisco carboxylation at 30 mM measured 7 days post compound application (reference value: 42.8 +/- 3.2 umol/m2/s); type: organism-based; details: 168 h, 30000 µM
Vitis vinifera [15] = test: Effect on maximum efficiency of PSII photochemistry after dark-adaptation in Vitis vinifera cv. Pinot noir at 1.2 to 30 mM measured 7 days post compound application; type: ADME, organism-based; details: in vivo, 168 h, 30000 µM
[16] = Inhibition of photosynthesis in Vitis vinifera cv. Pinot noir assessed as reduction in Hill reaction activity 6 mM measured 7 days post compound application relative to untreated control; type: organism-based; details: in vivo
photosystem 2 [17] = test: Inhibition of photosynthesis in Vitis vinifera cv. Pinot noir assessed as reduction in relative quantum yield of photo system 2 at 6 mM measured 7 days post compound application relative to untreated control; type: organism-based; details: in vivo
photosystem 2 [18] = test: Inhibition of photosynthesis in Vitis vinifera cv. Pinot noir assessed as reduction in relative quantum yield of photo system 2 at 30 mM measured 7 days post compound application relative to untreated control; type: organism-based; details: in vivo
photosystem 2 [19] = test: Inhibition of photosynthesis in Vitis vinifera cv. Pinot noir assessed as reduction in relative quantum yield of photo system 2 at 1.2 mM measured 7 days post compound application relative to untreated control; type: organism-based; details: in vivo
Vitis vinifera [20] = test: Inhibition of photosynthesis in Vitis vinifera cv. Pinot noir assessed as increase in mitochondrial respiration in the light at 30 mM measured 7 days post compound application relative to untreated control; type: organism-based; details: in vivo, 168 h, 30000 µM
Vitis vinifera [21] = test: Inhibition of photosynthesis in Vitis vinifera cv. Pinot noir assessed as increase in CO2 compensation point at 30 mM measured 7 days post compound application relative to untreated control; type: organism-based; details: in vivo, 168 h, 30000 µM
Vitis vinifera [22] = test: Inhibition of photosynthesis in Vitis vinifera cv. Pinot noir assessed as increase in ratio of apparent quantum yield of photo system 2 to apparent quantum yield yield of CO2 fixation at 1.2 to 30 mM measured 7 days post compound application; type: organism-based; parameters: scale not given: the % may be the effect or the level left; details: in vivo, 168 h, 30000 µM
[23] = Inhibition of photosynthesis in Vitis vinifera cv. Pinot noir assessed as change in light compensation point at 6 mM measured 7 days post compound application; type: organism-based; details: in vivo
[24] = Inhibition of photosynthesis in Vitis vinifera cv. Pinot noir assessed as reduction in dark respiration at 1.2 mM measured 7 days post compound application; type: organism-based; details: in vivo
[25] = Inhibition of photosynthesis in Vitis vinifera cv. Pinot noir assessed as reduction in apparent quantum yield of CO2 fixation at 1.2 to 30 mM measured 7 days post compound application; type: organism-based; details: in vivo
Vitis vinifera [26] = test: Effect on stomatal conductance in Vitis vinifera cv. Pinot noir at 1.2 to 30 mM measured 7 days post compound application; type: ADME, organism-based; details: in vivo, 168 h, 30000 µM
Vitis vinifera [27] = test: Toxicity in Vitis vinifera cv. Pinot noir assessed as effect on gas exchanges at 1.2 to 30 mM measured 14 days post compound application; type: organism-based; details: in vivo, 336 h, 30000 µM

N#Cc1c[nH]cc1-c1cccc2c1OC(F)(F)O2 [FLUDIOXONIL]
Activity (Vitis vinifera [1]): 7.7 micromol/m2/s | Activity (Vitis vinifera [2]): 37 umol/mol | Activity (Vitis vinifera [3]): 27.7 umol/mol | Activity (Vitis vinifera [4]): 19.8 umol/mol | Activity (Vitis vinifera [5]): 1.4 micromol/m2/s | Activity (Vitis vinifera [6]): 1.2 micromol/m2/s | Activity (Vitis vinifera [7]): 0.8 micromol/m2/s | Activity (Vitis vinifera [8]): 0.04 | Activity (Vitis vinifera [9]): 0.04 | Activity (Vitis vinifera [10]): 12.6 micromol/m2/s | Activity (Vitis vinifera [11]): 3.6 micromol/m2/s | Activity (Vitis vinifera [12]): 267 umol/mol | Activity (Vitis vinifera [13]): 82.2 umol/mol | Activity (Vitis vinifera [14]): 46.7 micromol/m2/s | Activity (Vitis vinifera [15]): Non-toxic | inhibition at 168 h, 6000 µM [16]: 36% | inhibition at 168 h, 6000 µM (photosystem 2 [17]): 7% | inhibition at 168 h, 30000 µM (photosystem 2 [18]): 10% | inhibition at 168 h, 1200 µM (photosystem 2 [19]): 10% | fold change (FC) (Vitis vinifera [20]): 3.5 | fold change (FC) (Vitis vinifera [21]): 3.3 | Activity (Vitis vinifera [22]): 50% | inhibition at 168 h, 6000 µM [23]: 20% | inhibition at 168 h, 1200 µM [24]: 30% | inhibition at 168 h, up to 30000 µM [25]: 30% | Activity (Vitis vinifera [26]): Non-toxic | Activity (Vitis vinifera [27]): Non-toxic

— ChEMBL document CHEMBL3044966, “Photosynthesis limitations of grapevine after treatment with the fungicide fludioxonil” (J Agric Food Chem, 2008)
